How the values were obtained:
Assay in all cases: co-expression with SlCPT2 in E. coli and N. benthamiana, GC-MS
Assay type in all cases: cell-based
Conditions in all cases: NNPP formed in cells by SlCPT2; E. coli 18 °C, 48 h
[1] = target: T1, ElTPS31 (Eremophila lucida, UniProt A0A6G9KSS8)
T1 construct: full length in N. benthamiana; TPS-b class I

[2] = target: T2, EdtTPS4 (Eremophila denticulata, UniProt A0A6G9KV06)
T2 construct: full length in N. benthamiana; TPS-a class I

[3] = target: T3, EdTPS22 (Eremophila drummondii, UniProt A0A6G9KSU3)
T3 construct: full length in N. benthamiana; TPS-a class I

[4] = target: T4, ElTPS3 (Eremophila lucida, UniProt A0A6G9KVC7)
T4 construct: full length in N. benthamiana; TPS-a class I
T4 sequence (A0A6G9KVC7 entry or part of it): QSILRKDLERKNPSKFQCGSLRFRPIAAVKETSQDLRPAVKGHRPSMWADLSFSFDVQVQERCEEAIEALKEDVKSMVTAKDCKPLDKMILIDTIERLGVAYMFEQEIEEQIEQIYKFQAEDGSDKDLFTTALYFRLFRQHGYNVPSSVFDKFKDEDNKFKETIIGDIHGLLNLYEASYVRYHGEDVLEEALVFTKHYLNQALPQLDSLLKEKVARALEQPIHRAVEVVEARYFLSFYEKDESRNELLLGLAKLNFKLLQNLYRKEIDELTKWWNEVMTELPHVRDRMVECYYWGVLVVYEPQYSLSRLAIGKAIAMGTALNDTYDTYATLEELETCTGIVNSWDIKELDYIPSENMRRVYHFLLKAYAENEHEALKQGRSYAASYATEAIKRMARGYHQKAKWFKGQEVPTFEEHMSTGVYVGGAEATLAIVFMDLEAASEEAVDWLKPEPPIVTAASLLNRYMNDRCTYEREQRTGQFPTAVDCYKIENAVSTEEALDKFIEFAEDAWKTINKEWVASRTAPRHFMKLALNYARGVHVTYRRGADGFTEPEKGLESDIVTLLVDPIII

T3 sequence (A0A6G9KSU3 entry or part of it): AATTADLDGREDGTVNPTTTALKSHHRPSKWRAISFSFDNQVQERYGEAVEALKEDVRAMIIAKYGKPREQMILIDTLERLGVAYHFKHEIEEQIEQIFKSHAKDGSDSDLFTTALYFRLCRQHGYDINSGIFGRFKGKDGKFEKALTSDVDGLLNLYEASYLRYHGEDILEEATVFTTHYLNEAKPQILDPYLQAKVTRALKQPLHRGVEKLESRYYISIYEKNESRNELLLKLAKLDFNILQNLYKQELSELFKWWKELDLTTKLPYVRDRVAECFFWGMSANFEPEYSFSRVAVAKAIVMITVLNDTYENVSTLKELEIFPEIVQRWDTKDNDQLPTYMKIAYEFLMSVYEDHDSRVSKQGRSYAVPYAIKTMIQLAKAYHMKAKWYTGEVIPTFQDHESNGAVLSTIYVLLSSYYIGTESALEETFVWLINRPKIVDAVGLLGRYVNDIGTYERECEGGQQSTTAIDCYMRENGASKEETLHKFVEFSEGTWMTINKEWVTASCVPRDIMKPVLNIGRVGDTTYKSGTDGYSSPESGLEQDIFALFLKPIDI
T1 sequence (A0A6G9KSS8 entry or part of it): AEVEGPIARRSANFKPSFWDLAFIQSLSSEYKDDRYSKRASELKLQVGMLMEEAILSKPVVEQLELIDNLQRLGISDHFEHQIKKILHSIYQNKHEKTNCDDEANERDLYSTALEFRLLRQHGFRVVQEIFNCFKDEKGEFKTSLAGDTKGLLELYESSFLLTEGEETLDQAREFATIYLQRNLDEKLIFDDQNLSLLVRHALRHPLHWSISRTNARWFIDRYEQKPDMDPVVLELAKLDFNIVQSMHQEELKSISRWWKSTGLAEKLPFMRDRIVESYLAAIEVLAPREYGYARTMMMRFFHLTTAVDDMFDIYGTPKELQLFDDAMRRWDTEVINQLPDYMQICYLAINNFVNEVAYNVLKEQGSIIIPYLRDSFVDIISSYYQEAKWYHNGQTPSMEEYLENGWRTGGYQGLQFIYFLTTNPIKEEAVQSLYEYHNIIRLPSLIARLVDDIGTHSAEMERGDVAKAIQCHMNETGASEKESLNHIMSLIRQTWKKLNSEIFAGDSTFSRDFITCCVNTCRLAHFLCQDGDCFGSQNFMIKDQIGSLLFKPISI
T2 sequence (A0A6G9KV06 entry or part of it): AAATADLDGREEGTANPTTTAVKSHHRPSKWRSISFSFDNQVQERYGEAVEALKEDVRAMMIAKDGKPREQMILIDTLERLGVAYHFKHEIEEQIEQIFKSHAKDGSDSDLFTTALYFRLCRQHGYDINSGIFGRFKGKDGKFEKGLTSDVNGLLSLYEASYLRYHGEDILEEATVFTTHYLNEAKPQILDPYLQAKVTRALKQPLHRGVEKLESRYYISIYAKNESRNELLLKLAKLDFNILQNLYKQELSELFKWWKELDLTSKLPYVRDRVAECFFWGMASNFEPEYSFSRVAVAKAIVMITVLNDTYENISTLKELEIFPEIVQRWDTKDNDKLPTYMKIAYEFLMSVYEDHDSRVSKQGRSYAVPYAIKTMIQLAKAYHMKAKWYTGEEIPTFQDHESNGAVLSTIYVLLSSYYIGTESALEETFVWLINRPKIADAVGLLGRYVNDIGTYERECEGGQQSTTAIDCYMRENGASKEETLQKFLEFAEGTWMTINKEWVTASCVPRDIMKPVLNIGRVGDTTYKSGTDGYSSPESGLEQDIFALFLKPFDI

## CC(C)=CCC/C(C)=C\CC/C(C)=C\CC/C(C)=C\COP(=O)(O)OP(=O)(O)O [nerylneryl diphosphate]
[1]
  co-expression with SlCPT2 in E. coli and N. benthamiana, GC-MS: co-expression of either one of ElTPS3, ElTPS31, EdtTPS4 or EdTPS22 with NNPP-forming SlCPT2
[2]
  co-expression with SlCPT2 in E. coli and N. benthamiana, GC-MS: co-expression of either one of ElTPS3, ElTPS31, EdtTPS4 or EdTPS22 with NNPP-forming SlCPT2
[3]
  co-expression with SlCPT2 in E. coli and N. benthamiana, GC-MS: co-expression of either one of ElTPS3, ElTPS31, EdtTPS4 or EdTPS22 with NNPP-forming SlCPT2
[4]
  co-expression with SlCPT2 in E. coli and N. benthamiana, GC-MS: co-expression of either one of ElTPS3, ElTPS31, EdtTPS4 or EdTPS22 with NNPP-forming SlCPT2

Source: PMC7049213, “Nerylneryl diphosphate is the precursor of serrulatane, viscidane and cembrane-type diterpenoids in Eremophila species” (BMC Plant Biology, 2020)
